# Source: ChEMBL document CHEMBL1141821, “Bioactive sesquiterpenes from a Taiwanese marine sponge Parahigginsia sp” (J Nat Prod, 1999)
# System: A549
# Assay: Cytotoxicity against human A549 cells after 6 days by MTT assay
# Assay type: functional, cell-based
# Conditions: A549, 144 h
row,Compound,IC50 [µg/mL]
1,CC(C)=C/C=C/C(C)c1ccc(C=O)c(O)c1O (stereo not drawn) [PARAHIGGINOL D],3.8
2,COc1cc(C(=O)O)ccc1C(C)/C=C/C=C(C)C (stereo not drawn) [PARAHIGGINIC ACID],3.9
3,Cc1ccc(C(C)CC(O)CC(C)C)c(O)c1 (stereo not drawn) [PARAHIGGINOL A],> 50
4,CC(=O)OC(CC(C)C)CC(C)c1ccc(C)cc1O (stereo not drawn) [PARAHIGGINOL C],2.8
5,CC(=O)OC(CC(C)C)CC(C)c1ccc(C=O)cc1O (stereo not drawn) [PARAHIGGINOL B],10

# System: P388
# Assay: Cytotoxicity against mouse P388 cells after 3 days by MTT assay
# Assay type: functional, cell-based
# Conditions: P388, 72 h
row,Compound,IC50 [µg/mL]
1,CC(C)=CCC[C@H](C)c1ccc(C)cc1O,0.1
2,CC(C)=C/C=C/C(C)c1ccc(C=O)c(O)c1O (stereo not drawn) [PARAHIGGINOL D],2.9
3,COc1cc(C(=O)O)ccc1C(C)/C=C/C=C(C)C (stereo not drawn) [PARAHIGGINIC ACID],1
4,Cc1ccc(C(C)CC(O)CC(C)C)c(O)c1 (stereo not drawn) [PARAHIGGINOL A],> 50
5,CC(=O)OC(CC(C)C)CC(C)c1ccc(C)cc1O (stereo not drawn) [PARAHIGGINOL C],2.5
6,CC(=O)OC(CC(C)C)CC(C)c1ccc(C=O)cc1O (stereo not drawn) [PARAHIGGINOL B],3

# System: not listed separately
# Assay: Cytotoxicity against human KB16 cells after 3 days by MTT assay
# Assay type: functional, cell-based
# Conditions: KB16, 72 h
row,Compound,IC50 [µg/mL]
1,CC(C)=CCC[C@H](C)c1ccc(C)cc1O,8.3
2,CC(C)=C/C=C/C(C)c1ccc(C=O)c(O)c1O (stereo not drawn) [PARAHIGGINOL D],7.2
3,COc1cc(C(=O)O)ccc1C(C)/C=C/C=C(C)C (stereo not drawn) [PARAHIGGINIC ACID],4.8
4,Cc1ccc(C(C)CC(O)CC(C)C)c(O)c1 (stereo not drawn) [PARAHIGGINOL A],> 50
5,CC(=O)OC(CC(C)C)CC(C)c1ccc(C)cc1O (stereo not drawn) [PARAHIGGINOL C],3.9
6,CC(=O)OC(CC(C)C)CC(C)c1ccc(C=O)cc1O (stereo not drawn) [PARAHIGGINOL B],4.9

# System: HT-29
# Assay: Cytotoxicity against human HT-29 cells after 6 days by MTT assay
# Assay type: functional, cell-based
# Conditions: HT-29, 144 h
row,Compound,IC50 [µg/mL]
1,CC(C)=CCC[C@H](C)c1ccc(C)cc1O,8.1
2,CC(C)=C/C=C/C(C)c1ccc(C=O)c(O)c1O (stereo not drawn) [PARAHIGGINOL D],3.3
3,COc1cc(C(=O)O)ccc1C(C)/C=C/C=C(C)C (stereo not drawn) [PARAHIGGINIC ACID],6
4,Cc1ccc(C(C)CC(O)CC(C)C)c(O)c1 (stereo not drawn) [PARAHIGGINOL A],> 50
5,CC(=O)OC(CC(C)C)CC(C)c1ccc(C)cc1O (stereo not drawn) [PARAHIGGINOL C],2.6
6,CC(=O)OC(CC(C)C)CC(C)c1ccc(C=O)cc1O (stereo not drawn) [PARAHIGGINOL B],3.5
